# Laboratory results: PMC10709007, “GPR162 is a beta cell CART receptor” (iScience, 2023)
# “Also recorded” adds a separate entry of the source. Where no end group is shown, it is not given here.
# Legend:
# [1] = system: INS-1 832/13 cells; experiment: Whole-cell capacitance measurement (exocytosis), patch-clamp; assay type: cell-based, rat
# Protocol: Whole-cell capacitance measurement was performed in INS-1 832/13 cells using HEKA EPC10 patch-clamp amplifiers with the software Suite Pulse + X-Chart Extension (version 8.6 or later; HEKA, Lambrecht-Pfalz, Germany) as previously described.[40] Briefly, INS-1 832/13 cells were seeded in Nunc plastic petri dishes one day prior to the measurement. The intracellular pipette solution contained 125 mM Cs-glutamate, 10 mM CsCl, 10 mM NaCl, 1 mM MgCl2, 5 mM HEPES, 3 mM Mg-ATP, 0.1 mM cAMP and 0.05 mM EGTA (pH 7.2 with CsOH). The perfusing extracellular solution was composed of 118 mM NaCl, 20 mM tetraethylammonium chloride, 5.6 mM KCl, 2.6 mM CaCl2, 1.2 mM MgCl2, 5 mM HEPES and 5 mM glucose (pH 7.4), and the temperature was maintained at 32°C.
# [2] = system: rodent and human islets; conditions: in vivo and in vitro/ex vivo; cited from earlier work
# Text: However, much earlier, a fragment of the CART peptide was identified in extracts of sheep hypothalamus.[2] CART was later found to be expressed also in pancreatic islet cells and in nerve fibers innervating the islets.[3]^,[4]^,[5] […] Since then, multiple biological effects of CART have been established.[4]^,[7] […] However, the identity of the CART receptor mediating this effect in beta cells is unknown to date.[15] Here, we provide evidence for GPR162 as a CART receptor in beta cells.
substance,measurement,setting,value
"CARTp55-102: Rat, mouse CARTp55-102 (Phoenix Pharmaceuticals, Cat#003-62); human form Cat#003-60; cocaine- and amphetamine-regulated transcript peptide (IPIYEKKYGQVPMCDAGEQCAVRKGARIGKLCDCPRGTSCNSFLLKCL; ends and bridges not checked; cysteine pairing not given here)",CART-induced increase in capacitance / exocytosis after Gpr162 KD,"[1]; Gpr162 KD cells, 10^-7M CARTp55-102 1 h, n = 13-14 cells",abolished; also recorded: near-complete abolishment
same,Increase in capacitance,"[1]; control cells, 10^-7M CARTp55-102 for 1 h, 5 mM glucose, 32°C, n = 17 cells",approximately 1.3 -fold
same,Glucagon secretion,[2],reduces glucagon secretion
same,Insulin secretion,[2],increases insulin secretion
